# Biological target: T1, human DGAT2 (hDGAT2) (Homo sapiens, UniProt Q96PD7)
# T1 construct: made in house; host or cells: Sf-9 insect cells (baculovirus), membrane fraction
# T1 sequence (Q96PD7 1-388): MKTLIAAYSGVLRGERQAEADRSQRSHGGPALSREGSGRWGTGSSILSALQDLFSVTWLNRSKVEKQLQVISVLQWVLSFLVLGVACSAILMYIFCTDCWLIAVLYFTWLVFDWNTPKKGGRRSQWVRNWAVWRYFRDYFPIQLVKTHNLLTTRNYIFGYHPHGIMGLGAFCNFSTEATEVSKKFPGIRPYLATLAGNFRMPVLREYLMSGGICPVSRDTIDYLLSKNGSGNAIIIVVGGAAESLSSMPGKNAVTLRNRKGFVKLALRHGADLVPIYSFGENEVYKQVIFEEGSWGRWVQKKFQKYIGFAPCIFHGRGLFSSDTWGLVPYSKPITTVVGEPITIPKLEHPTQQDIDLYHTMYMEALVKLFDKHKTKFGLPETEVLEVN
# Test: DGAT2 Enzymatic Activity Assay
# Type: biochemical
# Details: membrane prep of Sf-9 cells expressing hDGAT2; 13C18-triolein product by LC/MS/MS; 25 μM diolein, 5 μM 13C oleoyl-CoA, rt
# Procedure, shortened: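 Membranes from Sf-9 cells expressing untagged human DGAT2 (baculovirus, 48 h) used as enzyme at rt. The product ^13C18-triolein is quantified by LC/MS/MS against a ^13C21-triolein internal standard. Percent inhibition is taken from high and low controls, and IC50 is derived.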
row,IC50 [nM],SMILES
1,> 9990,"Cc1c(C(=O)N[C@H]2CCC(=O)NC2)nc2ccc(Oc3ncccc3OCC(F)(F)F)cn12 [Example 113, 3-methyl-N-[(3S)-6-oxo-3-piperidyl]-6-[[3-(2,2,2-trifluoroethoxy)-2-pyridyl]oxy]imidazo[1,2-a]pyridine-2-carboxamide]"
2,64,"CCOc1cccnc1Oc1ccc2nc(C(=O)NC3(C)CS(=O)(=O)C3)c(CC)n2c1 [Example 114, 6-[(3-ethoxy-2-pyridyl)oxy]-3-ethyl-N-(3-methyl-1,1-dioxo-thietan-3-yl)imidazo[1,2-a]pyridine-2-carboxamide]"
3,44,"CCc1c(C(=O)NC2(C)CCS(=O)(=O)CC2)nc2ccc(Oc3ncccc3OCC(F)(F)F)cn12 [Example 115, 3-ethyl-N-(4-methyl-1,1-dioxo-thian-4-yl)-6-[[3-(2,2,2-trifluoroethoxy)-2-pyridyl]oxy]imidazo[1,2-a]pyridine-2-carboxamide]"
4,413,"CC(C)c1c(C(=O)NC2(C)CCS(=O)(=O)CC2)nc2ccc(Oc3ncccc3OCC(F)(F)F)cn12 [Example 116, 3-isopropyl-N-(4-methyl-1,1-dioxo-thian-4-yl)-6-[[3-(2,2,2-trifluoroethoxy)-2-pyridyl]oxy]imidazo[1,2-a]pyridine-2-carboxamide]"
5,1.2,"Cc1c(C(=O)NC2(C)CCS(=O)(=O)CC2)nc2c(F)cc(Oc3ncccc3OCC(F)(F)F)cn12 [Example 117, 8-fluoro-3-methyl-N-(4-methyl-1,1-dioxo-thian-4-yl)-6-[[3-(2,2,2-trifluoroethoxy)-2-pyridyl]oxy]imidazo[1,2-a]pyridine-2-carboxamide]"
6,1.4,"Cc1c(C(=O)NC2(C)CCS(=O)(=O)CC2)nc2cc(F)c(Oc3ncc(F)cc3OCC(F)(F)F)cn12 [Example 118, 7-fluoro-6-[[5-fluoro-3-(2,2,2-trifluoroethoxy)-2-pyridyl]oxy]-3-methyl-N-(4-methyl-1,1-dioxo-thian-4-yl)imidazo[1,2-a]pyridine-2-carboxamide]"
7,1,"Cc1c(C(=O)NC2(C)CCS(=O)(=O)CC2)nc2cc(F)c(Oc3ncc(Cl)cc3OCC(F)(F)F)cn12 [Example 119, 6-[[5-chloro-3-(2,2,2-trifluoroethoxy)-2-pyridyl]oxy]-7-fluoro-3-methyl-N-(4-methyl-1,1-dioxo-thian-4-yl)imidazo[1,2-a]pyridine-2-carboxamide]"
8,4.3,"Cc1c(C(=O)NC2(C)CS(=O)(=O)C2)nc2cc(F)c(Oc3ncc(Cl)cc3OCC(F)(F)F)cn12 [Example 120, 6-[[5-chloro-3-(2,2,2-trifluoroethoxy)-2-pyridyl]oxy]-7-fluoro-3-methyl-N-(3-methyl-1,1-dioxo-thietan-3-yl)imidazo[1,2-a]pyridine-2-carboxamide]"
9,41,"Cc1c(C(=O)NC2(C)CS(=O)(=O)C2)nc2cc(F)c(Oc3ncc(F)cc3OCC(F)(F)F)cn12 [Example 121, 7-fluoro-6-[[5-fluoro-3-(2,2,2-trifluoroethoxy)-2-pyridyl]oxy]-3-methyl-N-(3-methyl-1,1-dioxo-thietan-3-yl)imidazo[1,2-a]pyridine-2-carboxamide]"
10,7.7,"Cc1c(C(=O)NC2(C)CCS(=O)(=O)CC2)nc2cc(F)c(Oc3nccnc3OCC(F)(F)F)cn12 [Example 122, 7-fluoro-3-methyl-N-(4-methyl-1,1-dioxo-thian-4-yl)-6-[3-(2,2,2-trifluoroethoxy)pyrazin-2-yl]oxy-imidazo[1,2-a]pyridine-2-carboxamide]"
11,93,"Cc1c(C(=O)NC2(C)CCS(=O)(=O)CC2)nc2ccc(OCc3ncccc3OCC(F)(F)F)cn12 [Example 123, 3-methyl-N-(4-methyl-1,1-dioxo-thian-4-yl)-6-[[3-(2,2,2-trifluoroethoxy)-2-pyridyl]methoxy]imidazo[1,2-a]pyridine-2-carboxamide]"
12,5.7,"CCOc1ccccc1COc1ccc2nc(C(=O)NC3(C)CCS(=O)(=O)CC3)c(C)n2c1 [Example 124, 6-[(2-ethoxyphenyl)methoxy]-3-methyl-N-(4-methyl-1,1-dioxo-thian-4-yl)imidazo[1,2-a]pyridine-2-carboxamide]"
13,4.9,"CCOc1cccnc1COc1ccc2nc(C(=O)NC3(C)CCS(=O)(=O)CC3)c(C)n2c1 [Example 125, 6-[(3-ethoxy-2-pyridyl)methoxy]-3-methyl-N-(4-methyl-1,1-dioxo-thian-4-yl)imidazo[1,2-a]pyridine-2-carboxamide]"
14,465,"Cc1c(C(=O)NC2(C)CCS(=O)(=O)CC2)nc2ccc(OCc3ccc(F)cc3)cn12 [Example 126, 6-[(4-fluorophenyl)methoxy]-3-methyl-N-(4-methyl-1,1-dioxo-thian-4-yl)imidazo[1,2-a]pyridine-2-carboxamide]"
15,6.5,"Cc1c(C(=O)NC2(C)CCS(=O)(=O)CC2)nc2ccc(OCc3ccccc3OC(F)F)cn12 [Example 127, 6-[[2-(difluoromethoxy)phenyl]methoxy]-3-methyl-N-(4-methyl-1,1-dioxo-thian-4-yl)imidazo[1,2-a]pyridine-2-carboxamide]"
16,> 9990,"Cc1c(C(=O)NC2(C)CCS(=O)(=O)CC2)nc2ccc(OCCC(F)(F)F)cn12 [Example 128, 3-methyl-N-(4-methyl-1,1-dioxo-thian-4-yl)-6-(3,3,3-trifluoropropoxy)imidazo[1,2-a]pyridine-2-carboxamide]"
17,161,"CCOCC(C)(C)COc1ccc2nc(C(=O)NC3(C)CCS(=O)(=O)CC3)c(C)n2c1 [Example 129, 6-(3-ethoxy-2,2-dimethyl-propoxy)-3-methyl-N-(4-methyl-1,1-dioxo-thian-4-yl)imidazo[1,2-a]pyridine-2-carboxamide]"
18,3.3,"CC1(NC(=O)c2nc3ccc(Oc4ncccc4OCC(F)(F)F)cn3c2Cl)CCS(=O)(=O)CC1 [Example 130, 3-chloro-N-(4-methyl-1,1-dioxo-thian-4-yl)-6-[[3-(2,2,2-trifluoroethoxy)-2-pyridyl]oxy]imidazo[1,2-a]pyridine-2-carboxamide]"
19,34,"CC1(NC(=O)c2nc3ccc(Oc4ncccc4OCC(F)(F)F)cn3c2O)CCS(=O)(=O)CC1 [Example 131, 3-hydroxy-N-(4-methyl-1,1-dioxo-thian-4-yl)-6-[[3-(2,2,2-trifluoroethoxy)-2-pyridyl]oxy]imidazo[1,2-a]pyridine-2-carboxamide]"
20,> 9990,"CC1(NC(=O)c2nc3ccc(Oc4ncccc4OCC(F)(F)F)cn3c2C(=O)O)CCS(=O)(=O)CC1 [Example 132, 2-((4-methyl-1,1-dioxidotetrahydro-2H-thiopyran-4-yl)carbamoyl)-6-((3-(2,2,2-trifluoroethoxy)pyridin-2-yl)oxy)imidazo[1,2-a]pyridine-3-carboxylic acid]"
21,28,"CC1(NC(=O)c2nc3ccc(Oc4ncccc4OCC(F)(F)F)cn3c2C(N)=O)CCS(=O)(=O)CC1 [Example 133, N2-(4-methyl-1,1-dioxo-thian-4-yl)-6-[[3-(2,2,2-trifluoroethoxy)-2-pyridyl]oxy-]imidazo[1,2-a]pyridine-2,3-dicarboxamide]"
22,6.2,"COc1c(C(=O)NC2(C)CCS(=O)(=O)CC2)nc2ccc(Oc3ncccc3OCC(F)(F)F)cn12 [Example 134, 3-methoxy-N-(4-methyl-1,1-dioxo-thian-4-yl)-6-[[3-(2,2,2-trifluoroethoxy)-2-pyridyl]oxy]imidazo[1,2-a]pyridine-2-carboxamide]"
23,62,"COc1c(C(=O)NC2(C)CS(=O)(=O)C2)nc2ccc(Oc3ncc(F)cc3OCC(F)(F)F)cn12 [Example 135, 6-[[5-fluoro-3-(2,2,2-trifluoroethoxy)-2-pyridyl]oxy]-3-methoxy-N-(3-methyl-1,1-dioxo-thietan-3-yl)imidazo[1,2-a]pyridin-1-ium-2-carboxamide;2,2,2-trifluoroacetate]"
24,146,"CC1(NC(=O)c2nc3ccc(Oc4ncccc4OCC(F)(F)F)cn3c2C(F)(F)F)CCS(=O)(=O)CC1 [Example 136, N-(4-methyl-1,1-dioxo-thian-4-yl)-6-[[3-(2,2,2-trifluoroethoxy)-2-pyridyl]oxy]-3-(trifluoromethyl)imidazo[1,2-a]pyridine-2-carboxamide]"
25,11,"CC1(NC(=O)c2nc3ccc(Oc4ncccc4OCC(F)(F)F)cn3c2CO)CCS(=O)(=O)CC1 [Example 137, 3-(hydroxymethyl)-N-(4-methyl-1,1-dioxo-thian-4-yl)-6-[3-(2,2,2-trifluoroethoxy)pyridine-2-yl]oxy-imidazo[1,2-a]pyridine-2-carboxamide]"
26,25,"Cc1c(C(=O)NC2(C)CCS(=O)(=O)CC2)nc2cc(C#N)c(Oc3ncc(Cl)cc3OCC(F)(F)F)cn12 [Example 138, 6-[5-chloro-3-(2,2,2-trifluoroethoxy)pyridine-2-yl]oxy-7-cyano-3-methyl-N-(4-methyl-1,1-dioxo-thian-4-yl)imidazo[1,2-a]pyridine-2-carboxamide]"
27,0.7,"CC1(NC(=O)c2nc3ccc(Oc4ncc(F)cc4OCC(F)(F)F)c(Cl)n3c2Cl)CCS(=O)(=O)CC1 [Example 139, 3,5-dichloro-6-[[5-fluoro-3-(2,2,2-trifluoroethoxy)-2-pyridyl]oxy]-N-(4-methyl-1,1-dioxo-thian-4-yl)imidazo[1,2-a]pyridine-2-carboxamide]"

# — patent US20260176267A1, “PREPARATION OF IMIDAZOPYRIDINE AND IMIDAZOPYRIDAZINE DERIVATIVES AS NOVEL DIACYLGLYCERIDE O-ACYLTRANSFERASE 2 INHIBITORS” (Merck Sharp & Dohme LLC, priority 2022, published 2026)
